These results are taken from PMC12053997, “D-enantiomeric antibiofilm peptides effective against anaerobic Cutibacterium acnes biofilm” (Microbiology Spectrum, 2025).

The subject of assay [1] is C. acnes strains (C2, C5, PJI2, PJI8). The experiment in a line: microbe, parasite or virus in culture. On the procedure: (§1) C. acnes strains were isolated on Columbia agar containing 5% sheep blood (BioRad, Hercules, California, USA) and cultivated in Brain Heart Infusion (BHI) broth (BioRad, Hercules, California, USA) for 5 days, under anaerobic conditions using the GenBox system (Biomérieux, Marcy l’Etoile, France), at 37°C. For all assays, one colony of isolated C. acnes strains was inoculated in a 1.5 mL vial containing 1.5 mL of BHI. After 5–6 days of incubation (stationary phase reached after 4 days) at 37°C, the absorbance (at 600 nm) of the bacterial culture was adjusted to 1. The bacterial suspension was then diluted in BHI broth at 1/100 (OD: 0.01) and 1 mL of this suspension was inoculated in each well of 24- or 48-well plates.
(§2) Peptides were added to a 48-well plate at the desired concentrations in BHI medium and diluted bacteria were inoculated as described in the “Bacterial Strain Culture” section. Plates were incubated at 37°C, under anaerobic conditions using the GenBox system, for 5–6 days. The effect of the peptide on planktonic growth was determined by measuring the MIC which was defined as the concentration in the well containing the minimal amount of compound that leads to the absence of visible bacterial growth, according to Wiegand et al. ([38]). […] Finally, 48-well plates containing cultures with or without peptides were washed three times with water to remove unattached bacteria. Adhered bacteria were stained with 1 mL of 0.2% crystal violet for 20 min, then washed with water, and crystal violet was extracted with 95% ethanol (vol/vol). The quantity of biofilm (biomass) was analyzed by measuring the absorbance of the crystal violet suspension at 595 nm using the SpectroStar nano spectrophotometer (BMG Labtech, Ortenberg, Germany). The Minimal Biofilm Inhibition Concentration (MBIC) was defined as the concentration in the well containing the minimal quantity of peptide where the crystal violet absorbance, corrected by the blank, was null. Experiments were performed three independent times in technical duplicate for each strain.

For assay [2] the test system is unchanged. On the procedure: as §1, §2

≈ marks a conversion by molar mass, not a printed value. Where two headings read alike, the source gives them in different places. Where a SMILES comes first, the peptide text is derived from it. Where no end group is shown, it is not given here. [ ]: non-standard residue; d: D form. A value given as a limit tells only on which side of the number the result lay.

In assay [1] (strains (C2, C5, PJI2, PJI8)), `CC[C@@H](C)[C@@H](NC(=O)[C@@H](CCCNC(=N)N)NC(=O)[C@@H](CCCNC(=N)N)NC(=O)[C@@H](Cc1c[nH]c2ccccc12)NC(=O)[C@@H](CCC(N)=O)NC(=O)[C@H](N)C(C)C)C(=O)N[C@@H](C(=O)N[C@@H](C(=O)N[C@H](CCCNC(=N)N)C(=O)N[C@@H](C(=O)N[C@@H](C(=O)N[C@H](CCCNC(=N)N)C(N)=O)[C@H](C)CC)C(C)C)C(C)C)[C@H](C)CC` [AB008-D] (H-[dV][dQ][dW][dR][dR][dI][dI][dV][dR][dV][dI][dR]-NH2) gave an MBC of more than 64 µg/mL. In assay [2] (strains (C2, C5, PJI2, PJI8)), the MBIC is listed as 32 µg/mL.
For the compound “VRLIVAVRIWRR-NH2 [Peptide 1018, reference compound]”, the MIC is reported as more than 64 µg/mL in assay [1] (strain C2, BHI, anaerobic, 37°C, 5–6 days, n = 3 (n = 2 for 1018, AB008-D)); more than 64 µg/mL in assay [1] (strain C5, BHI, anaerobic, 37°C, 5–6 days, n = 3 (n = 2 for 1018, AB008-D)); more than 64 µg/mL in assay [1] (strain PJI2, BHI, anaerobic, 37°C, 5–6 days, n = 3 (n = 2 for 1018, AB008-D)); more than 64 µg/mL in assay [1] (strain PJI8, BHI, anaerobic, 37°C, 5–6 days, n = 3 (n = 2 for 1018, AB008-D)). Moreover, the MBC is listed as more than 64 µg/mL in assay [1] (strain C2, no colonies on blood agar after 5–6 days anaerobic, n = 3 (n = 2 for 1018, AB008-D)); more than 64 µg/mL in assay [1] (strain C5, no colonies on blood agar after 5–6 days anaerobic, n = 3 (n = 2 for 1018, AB008-D)); more than 64 µg/mL in assay [1] (strain PJI2, no colonies on blood agar after 5–6 days anaerobic, n = 3 (n = 2 for 1018, AB008-D)); more than 64 µg/mL in assay [1] (strain PJI8, no colonies on blood agar after 5–6 days anaerobic, n = 3 (n = 2 for 1018, AB008-D)). For the same compound, the MBIC in assay [2] (strain C2, crystal violet absorbance 595 nm null, n = 3 (n = 2 for 1018, AB008-D)) was 32 µg/mL; in assay [2] (strain C5, crystal violet absorbance 595 nm null, n = 3 (n = 2 for 1018, AB008-D)), 32 µg/mL; in assay [2] (strain PJI2, crystal violet absorbance 595 nm null, n = 3 (n = 2 for 1018, AB008-D)), 32 µg/mL; in assay [2] (strain PJI8, crystal violet absorbance 595 nm null, n = 3 (n = 2 for 1018, AB008-D)), 32 µg/mL.
In the case of `CC[C@@H](C)[C@@H](NC(=O)[C@@H](CCCNC(=N)N)NC(=O)[C@H](N)CCCCN)C(=O)N[C@H](CCCNC(=N)N)C(=O)N[C@H](Cc1c[nH]c2ccccc12)C(=O)N[C@@H](C(=O)N[C@@H](C(=O)N[C@H](CC(C)C)C(=O)N[C@H](CCCNC(=N)N)C(=O)N[C@@H](C(=O)N[C@@H](C(=O)N[C@H](CCCNC(=N)N)C(N)=O)[C@H](C)CC)C(C)C)[C@H](C)CC)C(C)C` [AB101-D] (H-[dK][dR][dI][dR][dW][dV][dI][dL][dR][dV][dI][dR]-NH2), the MICs in assay [1] (strains (C2, C5, PJI2, PJI8)) is 16 to 32 µg/mL.
As to `CO[C@H]1/C=C/O[C@@]2(C)Oc3c(C)c(O)c4c(O)c(c(/C=N/N5CCN(C)CC5)c(O)c4c3C2=O)NC(=O)/C(C)=C\C=C\[C@H](C)[C@H](O)[C@@H](C)[C@@H](O)[C@@H](C)[C@H](OC(C)=O)[C@@H]1C` [Rifampicin, rifampicin, reference compound], the MIC in assay [1] (Cutibacterium acnes) turned out to be 0.008 µg/mL (≈ 9.72 nM); in assay [1] (strain C5, n=3) it was 0.008 µg/mL (≈ 9.72 nM); in assay [1] (strain PJI2, n=3), 0.008 µg/mL (≈ 9.72 nM); in assay [1] (strain PJI8, n=3), 0.008 µg/mL (≈ 9.72 nM). In addition, the MBC was more than 0.064 µg/mL in assay [1] (Cutibacterium acnes, strain C2, n=3); more than 0.064 µg/mL in assay [1] (Cutibacterium acnes, strain C5, n=3); more than 0.064 µg/mL in assay [1] (Cutibacterium acnes, strain PJI2, n=3); 0.008 to 0.016 µg/mL (≈ 9.72 to 19.4 nM) in assay [1] (Cutibacterium acnes, strain PJI8, n=3). Besides, the MBIC in assay [2] (strain C2, n=3) is 0.002 to 0.004 µg/mL; in assay [2] (strain C5, n=3), 0.008 µg/mL; in assay [2] (strain PJI2, n=3) it was 0.004 to 0.008 µg/mL; in assay [2] (strain PJI8, n=3), 0.008 µg/mL.
`CC[C@@H](C)[C@@H](NC(=O)[C@@H](CCCNC(=N)N)NC(=O)[C@@H](CCCNC(=N)N)NC(=O)[C@@H](Cc1c[nH]c2ccccc12)NC(=O)[C@@H](CCC(N)=O)NC(=O)[C@H](N)C(C)C)C(=O)N[C@H](CC(C)C)C(=O)N[C@@H](C(=O)N[C@H](CCCNC(=N)N)C(=O)N[C@@H](C(=O)N[C@@H](C(=O)N[C@H](CCCNC(=N)N)C(N)=O)[C@H](C)CC)C(C)C)C(C)C` [AB009-D] (H-[dV][dQ][dW][dR][dR][dI][dL][dV][dR][dV][dI][dR]-NH2) registered an MICs in assay [1] (strains (C2, C5, PJI2, PJI8)) of 16 to 32 µg/mL.
For the compound `CC[C@@H](C)[C@@H](NC(=O)[C@@H](C)NC(=O)[C@@H](CCCNC(=N)N)NC(=O)[C@@H](Cc1c[nH]c2ccccc12)NC(=O)[C@@H](CCC(N)=O)NC(=O)[C@H](N)C(C)C)C(=O)N[C@H](CCCNC(=N)N)C(=O)N[C@@H](C(=O)N[C@H](CCCNC(=N)N)C(=O)N[C@@H](C(=O)N[C@@H](C(=O)N[C@H](CCCNC(=N)N)C(N)=O)[C@H](C)CC)C(C)C)C(C)C` [DJK5, reference compound] (H-[dV][dQ][dW][dR][dA][dI][dR][dV][dR][dV][dI][dR]-NH2), in assay [1] (strains (C2, C5, PJI2, PJI8)), the MICs is 16 to 32 µg/mL.
